Experimental data published in patent publication US7378387B2, “Method of suppressing immune response by reducing intracellular content of glutathione in macrophages and monocytes” (Ajinomoto Co., Inc., priority 1997, dated 2008).

Columns and labels:
IL-12 [1] = experiment: IL-12 production from macrophages induced through administration (Example 9, Table 1); type: in vivo, DBA/2 mice; conditions: LPS 100 ng/ml, IFNγ 100 units/ml
Protocol: (§1) The amount of IL-12 was determined through bioassay using cells of human T cell strain 2D6 (J. Leukocyte Biology, vol. 61, p. 346, 1997).
(§2) 2D6 cells which had been incubated in an RPMI 1640 medium containing 500 pg/ml of recombinant human IL-12, 50 μM of 2-mercaptoethanol and 10% FCS (fetal calf serum) were moved to a tube, and centrifugally washed three times with the above-mentioned medium without IL-12 and cell density was adjusted to 1×10^5/ml. The cell suspension was added in an amount of 100 μl each to a 96-well flat bottom plate containing a sample serially diluted in advance with an RPMI 1640 medium containing 50 μM of 2-mercaptoethanol and 10% FCS in an amount of 100 μl each. Subsequently, the mixture was charged into a 5% O2 incubator of 37° C., and incubated for 48 hours. For final 6 hours, ^3H-TdR was pulsed (a substance adjusted to 370 kBq/ml in an RPMI 1640 medium containing 50 μM of 2-mercaptoethanol and 10% FCS was added in an amount of 50 μl each). The cells a harvested, and the radioactivity was measured using a β counter (Matrix 96, supplied by Packard).
The increase in the amounts of oxidative macrophages can easily be determined visually from the fact that almost no reaction product with monochlorobimane is observed, namely, a gray or blue image is provided, and the increase in the amounts of reductive macrophages from the fact that a red or yellow image is provided respectively. […] Meanwhile, the same examination was conducted by harvesting peritoneal exudate cells after 20 hours of the administration of 2 mg of N-acetylcystine (NAC).
Thus, the peritoneal exudate adherent cells were incubated in the following manner, and the amounts of NO and IL-12 produced in the culture supernatant were measured. With respect to the amount of IL-6, the amount of IL-6 produced spontaneously in the absence of a stimulator was measured.
Cells: The peritoneal exudate adherent cells obtained by the stimulation, namely, the macrophages were added to a 96-well microplate in an amount of 1×10^5 cells/200 μl each.
Medium: Phenol red-free RPMI 1640: 200 μl/well
LPS: Lipopolysaccharide (made by Sigma Co.) (origin: E. coli) 100 ng/ml

[2] = test system: spontaneous onset of insulin-dependent diabetes mellitus; experiment: Onset of diabetes mellitus in NOD mice dosed at age 3 to 6 weeks (Example 23); type: in vivo; conditions: three times per week, nine times; for Frequency (%) of onset of diabetes mellitus, on age 18 weeks: saline 50; for Frequency (%) of onset of diabetes mellitus, on age 22 weeks: saline 80
Protocol: NOD mice purchased from Nippon Clair, Co. were naturally mated together. Among the off spring mice, a colony of NOD mice with a high frequency of the spontaneous onset of insulin-dependent diabetes mellitus was established. Female NOD mice from the colony were used for the present experiment. […] Urine glucose was detected, using Uropaper (BM Test Glucose 5000, manufactured by Yamanouchi Pharmaceuticals, Co. Ltd.). Chemical agents were administered intraperitoneally, unless otherwise stated. […] (NAC)2 and (NAC-OMe)2 were at a single dose of 20 μg/animal; and NAC and GSHOEt were at a single dose of 2 μg/animal; and a single dose of lentinan was 0.1 mg/kg.

[3] = test system: macrophage-like cells from tissues of rheumatoid arthritis patients; experiment: Intracellular GSH by ACAS in macrophage-like cells from tissues of rheumatoid arthritis patients (Example 17); type: cell-based, human; conditions: 3 hours; for relative ratio of oxidative macrophages (reduced amount of intracellular glutathione) compared with saline-added group: added at 2 mM
Protocol: Synovial tissue was aseptically sampled from tissues resected during joint surgery. The sampled synovial tissue was rinsed in phosphate buffer, from which the surface was peeled off in a petri dish containing the same phosphate buffer. Then, the resulting synovial tissue was cut into pieces with a pair of scissors. To the pieces were added 2% hyaluronidase (manufactured by Sigma), 0.2% DNase (derived from bovine pancreas) and 5% collagenase, for enzymatic treatment at 37° C. for 2 hours. After discarding the resulting debris, a cell fraction recovered by centrifugation was adjusted to 5×10^5 cells/ml in a phenol red-free DMEM culture medium supplemented with 10% FCS (manufactured by Nikken Biology Co.). For 3 hours, the cells were allowed to adhere to the plastic surface. Plastic surface adherent macrophage-like cells harvested with a rubber policeman were then subjected to rinsing in combination with centrifugation three times using the culture medium under ice cooling. The resulting cells were designated as synovial tissue-derived macrophages and were then subjected to the following experiments.
By the same manner as in Example 3, macrophage-like cells were collected from tissues of rheumatoid arthritis patients, and were then suspended and adjusted in a phenol red-free RPMI 1640 culture medium supplemented with 10% fetal calf serum to 3×10^6 cells/ml. The suspension was divided in 100-μl portions on Lab-Tek Chamber Slide (#136439; manufactured by NUNC, CO.), for culturing in 5% CO2 at 37° C. for 3 hours; after discarding the nonadherent cells, the 200-μl serum-free culture medium further containing any of the following chemical agents was fed to the resulting culture, for reaction for 3 hours; and then, the resulting culture was rinsed three times, followed by addition of the serum-free culture medium of 200 μl and addition of monochlorobimane to a final concentration of 10 μM, for reaction for 30 minutes. The amount of intracellular GSH was assayed by imaging analysis with an ACAS system (manufactured by Meridian Co.).

IL-12 [4] = experiment: IL-12 production of MΦ from JaK3 knock out mice (Example 6); type: in vivo; conditions: stimulation of LPS or IFNγ; 1 mg/ml in city water, 24 days; no production in control group
Protocol: as §1
as §2, with “Subsequently, the mixture was charged into a 5% O2 incubator of 37° C., and incubated for 48 hours. For final 6 hours, ^3H-TdR was pulsed (a substance adjusted to 370 kBq/ml in an RPMI 1640 medium containing 50 μM of 2-mercaptoethanol and 10% FCS was added in an amount of 50 μl each).” left out
Macrophages (MΦ) were prepared from knock out mice deficient in a molecule participating in a signal transduction system from a receptor, and the function of the redox system was analyzed. […]
Peritoneal cells were harvested from three groups of knock out mice, and stimulated with LPS, IL-2, IFNγ and a combination thereof. The NO production, the IL-6 production and the IL-12 production were measured. […] Then, the IL-6 production was analyzed. In LPS stimulation, the amount was detected as 962 pg/ml in the knock out mice derived MΦ culture, 122 pg/ml in the NAC group, and 82 pg/ml in the GSH-OEt group. […]

## COC(=O)[C@H](CSSC[C@H](NC(C)=O)C(=O)OC)NC(C)=O [(NAC-OMe)2, N,N′-diacetylcystine dimethyl ester]
IL-12 [1]
  IL-12, amount produced relative to that of control group: 11%
[2]; intraperitoneal
  Frequency (%) of onset of diabetes mellitus, on age 18 weeks: 70%
  Frequency (%) of onset of diabetes mellitus, on age 22 weeks: 80%
[3]; added at 2 μM
  induction of oxidative macrophage with the reduced amount of intracellular glutathione: confirmed

## CC(=O)N[C@@H](CSSC[C@H](NC(C)=O)C(=O)O)C(=O)O [(NAC)2, N,N′-diacetylcystine]
IL-12 [1]
  IL-12, amount produced relative to that of control group: 15%
[2]; intraperitoneal
  Frequency (%) of onset of diabetes mellitus, on age 18 weeks: 60%
  Frequency (%) of onset of diabetes mellitus, on age 22 weeks: 80%

## CC(=O)N[C@@H](CS)C(=O)O [NAC, N-acetylcysteine, reference compound]
IL-12 [4]
  amount of IL-12: 420 pg/mL
IL-12 [1]
  IL-12, amount produced relative to that of control group: 920%
[2]; intraperitoneal
  Frequency (%) of onset of diabetes mellitus, on age 18 weeks: 10%
  Frequency (%) of onset of diabetes mellitus, on age 22 weeks: 20%
[2]; oral
  Frequency (%) of onset of diabetes mellitus, on age 18 weeks: 30%
  Frequency (%) of onset of diabetes mellitus, on age 22 weeks: 40%

## CCOC(=O)CNC(=O)[C@H](CS)NC(=O)CC[C@H](N)C(=O)O [GSH-OEt, glutathione monoethyl ester]
IL-12 [4]
  amount of IL-12: 610 pg/mL
[2]; intraperitoneal
  Frequency (%) of onset of diabetes mellitus, on age 18 weeks: 0%
  Frequency (%) of onset of diabetes mellitus, on age 22 weeks: 5%
[3]
  relative ratio of oxidative macrophages (reduced amount of intracellular glutathione) compared with saline-added group: same action was also observed
[3]; listed as glutathione ethyl ester
  relative ratio of oxidative macrophages (reduced amount of intracellular glutathione) compared with saline-added group: decreased
